Experimental findings from patent publication US12291519B2, “2-hydroxycycloalkane-1-carbamoyl” (Idorsia Pharmaceuticals Ltd, priority 2019, dated 2025) are described below.

For assay [1], the target named is human Gal-1 (hGal-1). As to the kind of experiment: Competitive binding assay: biotinylated hGal-1 binding to microplate-adsorbed asialofetuin (ASF). As to conditions: Activity on hGal-1; binding of biotinylated hGal-1 to ASF-coated plates; mean values. The procedure, abridged: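 Biotinylated hGal-1 (300–1000 ng/mL; optionally a cysteine-free all-serine variant) incubated 3 h at 4 °C with compound on asialofetuin-coated plates, then streptavidin-peroxidase 1 h at 4 °C. ABTS readout at OD 410 nm after 30–45 min; IC50 given as mean of several runs.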

The target in assay [2] is human Gal-3 (hGal-3) (Homo sapiens (Human), UniProt P17931). The assay is described as follows: Competitive binding assay: biotinylated hGal-3 binding to microplate-adsorbed asialofetuin (ASF). The note with it: Activity on hGal-3; binding of biotinylated hGal-3 to ASF-coated plates; mean values. An outline of the steps:
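Serially diluted compounds competed with biotinylated human Gal-3 for binding to plate-adsorbed asialofetuin over 3 h at 4 °C. Bound Gal-3 was detected with streptavidin-peroxidase (80 ng/mL, 1 h, 4 °C) and ABTS substrate. IC50 values are means of several measurements.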

Chain of human Gal-1 (hGal-1) (P09382 2-135 limits assumed): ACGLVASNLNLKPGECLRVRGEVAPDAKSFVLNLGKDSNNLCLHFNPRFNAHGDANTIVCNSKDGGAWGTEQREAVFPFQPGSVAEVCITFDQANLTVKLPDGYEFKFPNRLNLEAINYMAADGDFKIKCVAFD
Chain of human Gal-3 (hGal-3) (P17931 whole entry): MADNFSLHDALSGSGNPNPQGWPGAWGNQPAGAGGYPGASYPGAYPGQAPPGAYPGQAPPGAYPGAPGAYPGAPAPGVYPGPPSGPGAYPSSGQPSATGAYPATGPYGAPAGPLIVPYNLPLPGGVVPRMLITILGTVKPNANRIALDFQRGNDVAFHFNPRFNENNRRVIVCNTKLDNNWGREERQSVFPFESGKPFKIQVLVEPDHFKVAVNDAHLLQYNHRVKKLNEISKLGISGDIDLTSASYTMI

As usually defined, the IC50 is the midpoint of a concentration-inhibition curve. Low readings indicate greater potency in that assay, high ones weaker potency in that assay. With `CO[C@@H]1[C@@H](n2cc(-c3cc(F)c(Br)c(F)c3)nn2)[C@@H](O)[C@@H](CO)O[C@H]1C(=O)N(c1cc(Cl)cc(Cl)c1)[C@H]1CCCC[C@@H]1O` [Example 151, (2R,3R,4S,5R,6R)-4-(4-(4-bromo-3,5-difluorophenyl)-1H-1,2,3-triazol-1-yl)-N-(3,5-dichlorophenyl)-5-hydroxy-N-((1S,2S)-2-hydroxycyclohexyl)-6-(hydroxymethyl)-3-methoxytetrahydro-2H-pyran-2-carboxamide], the IC50 in assay [1] was 1130 nM; in assay [2], 37 nM.

As for `CO[C@@H]1[C@@H](n2cc(-c3cc(F)c(Br)c(F)c3)nn2)[C@@H](O)[C@@H](CO)O[C@H]1C(=O)N(c1ccc(F)c(F)c1)[C@H]1CCCC[C@@H]1O` [Example 152, (2R,3R,4S,5R,6R)-4-(4-(4-bromo-3,5-difluorophenyl)-1H-1,2,3-triazol-1-yl)-N-(3,4-difluorophenyl)-5-hydroxy-N-((1S,2S)-2-hydroxycyclohexyl)-6-(hydroxymethyl)-3-methoxytetrahydro-2H-pyran-2-carboxamide], the IC50 in assay [1] amounted to 3140 nM; in assay [2], 62 nM.

Turning to `CO[C@@H]1[C@@H](n2cc(-c3cc(F)c(Br)c(F)c3)nn2)[C@@H](O)[C@@H](CO)O[C@H]1C(=O)N(c1ccc2scnc2c1)[C@H]1CCCC[C@@H]1O` [Example 153, (2R,3R,4S,5R,6R)-N-(benzo[d]thiazol-5-yl)-4-(4-(4-bromo-3,5-difluorophenyl)-1H-1,2,3-triazol-1-yl)-5-hydroxy-N-((1S,2S)-2-hydroxycyclohexyl)-6-(hydroxymethyl)-3-methoxytetrahydro-2H-pyran-2-carboxamide], the IC50 in assay [1] worked out at 1080 nM; in assay [2] it was 25 nM.

Turning to `CO[C@@H]1[C@@H](n2cc(-c3cc(F)c(Br)c(F)c3)nn2)[C@@H](O)[C@@H](CO)O[C@H]1C(=O)N(c1cc(Cl)cc(C#N)c1)[C@H]1CCCC[C@@H]1O` [Example 154, (2R,3R,4S,5R,6R)-4-(4-(4-bromo-3,5-difluorophenyl)-1H-1,2,3-triazol-1-yl)-N-(3-chloro-5-cyanophenyl)-5-hydroxy-N-((1S,2S)-2-hydroxycyclohexyl)-6-(hydroxymethyl)-3-methoxytetrahydro-2H-pyran-2-carboxamide], the IC50 amounted to 957 nM in assay [1] and 23 nM in assay [2].

Consider `CO[C@@H]1[C@@H](n2cc(-c3cc(F)c(Br)c(F)c3)nn2)[C@@H](O)[C@@H](CO)O[C@H]1C(=O)N(c1cc(F)cc(C#N)c1)[C@H]1CCCC[C@@H]1O` [Example 155, (2R,3R,4S,5R,6R)-4-(4-(4-bromo-3,5-difluorophenyl)-1H-1,2,3-triazol-1-yl)-N-(3-cyano-5-fluorophenyl)-5-hydroxy-N-((1S,2S)-2-hydroxycyclohexyl)-6-(hydroxymethyl)-3-methoxytetrahydro-2H-pyran-2-carboxamide], for which the IC50 amounted to 1510 nM in assay [1] and 24 nM in assay [2].

On to `CO[C@@H]1[C@@H](n2cc(-c3cc(F)c(C)c(F)c3)nn2)[C@@H](O)[C@@H](CO)O[C@H]1C(=O)N(c1cc(Cl)cc(Cl)c1)[C@H]1CCCC[C@@H]1O` [Example 158, (2R,3R,4S,5R,6R)-N-(3,5-dichlorophenyl)-4-(4-(3,5-difluoro-4-methylphenyl)-1H-1,2,3-triazol-1-yl)-5-hydroxy-N-((1S,2S)-2-hydroxycyclohexyl)-6-(hydroxymethyl)-3-methoxytetrahydro-2H-pyran-2-carboxamide], for which the IC50 in assay [1] was found to be 798 nM; in assay [2] it was 15 nM.

For the compound `CO[C@@H]1[C@@H](n2cc(-c3cc(F)c(C)c(F)c3)nn2)[C@@H](O)[C@@H](CO)O[C@H]1C(=O)N(c1cc(Cl)cc(C#N)c1)[C@H]1CCCC[C@@H]1O` [Example 159, (2R,3R,4S,5R,6R)-N-(3-chloro-5-cyanophenyl)-4-(4-(3,5-difluoro-4-methylphenyl)-1H-1,2,3-triazol-1-yl)-5-hydroxy-N-((1S,2S)-2-hydroxycyclohexyl)-6-(hydroxymethyl)-3-methoxytetrahydro-2H-pyran-2-carboxamide], the IC50 in assay [1] worked out at 528 nM; in assay [2] it was 12 nM.

With `CO[C@@H]1[C@@H](n2cc(-c3cc(F)c(C)c(F)c3)nn2)[C@@H](O)[C@@H](CO)O[C@H]1C(=O)N(c1cc(F)cc(C#N)c1)[C@H]1CCCC[C@@H]1O` [Example 161, (2R,3R,4S,5R,6R)-N-(3-cyano-5-fluorophenyl)-4-(4-(3,5-difluoro-4-methylphenyl)-1H-1,2,3-triazol-1-yl)-5-hydroxy-N-((1S,2S)-2-hydroxycyclohexyl)-6-(hydroxymethyl)-3-methoxytetrahydro-2H-pyran-2-carboxamide], the IC50 in assay [1] was 2170 nM; in assay [2] it was 25 nM.

In the case of `CO[C@@H]1[C@@H](n2cc(-c3ccc(F)c(F)c3)nn2)[C@@H](O)[C@@H](CO)O[C@H]1C(=O)N(c1cc(Cl)cc(Cl)c1)[C@H]1CCCC[C@@H]1O` [Example 162, (2R,3R,4S,5R,6R)-N-(3,5-dichlorophenyl)-4-(4-(3,4-difluorophenyl)-1H-1,2,3-triazol-1-yl)-5-hydroxy-N-((1S,2S)-2-hydroxycyclohexyl)-6-(hydroxymethyl)-3-methoxytetrahydro-2H-pyran-2-carboxamide], the IC50 in assay [1] came out at 134 nM; in assay [2], 32 nM.

Take `CO[C@@H]1[C@@H](n2cc(-c3ccc(Br)c(F)c3)nn2)[C@@H](O)[C@@H](CO)O[C@H]1C(=O)N(c1cc(Cl)cc(Cl)c1)[C@H]1CCCC[C@@H]1O` [Example 163, (2R,3R,4S,5R,6R)-4-(4-(4-bromo-3-fluorophenyl)-1H-1,2,3-triazol-1-yl)-N-(3,5-dichlorophenyl)-5-hydroxy-N-((1S,2S)-2-hydroxycyclohexyl)-6-(hydroxymethyl)-3-methoxytetrahydro-2H-pyran-2-carboxamide]: the IC50 came to 1270 nM in assay [1] and 18 nM in assay [2].

As for `CO[C@@H]1[C@@H](n2cc(-c3ccc(Br)c(F)c3)nn2)[C@@H](O)[C@@H](CO)O[C@H]1C(=O)N(c1ccc(F)c(F)c1)[C@H]1CCCC[C@@H]1O` [Example 164, (2R,3R,4S,5R,6R)-4-(4-(4-bromo-3-fluorophenyl)-1H-1,2,3-triazol-1-yl)-N-(3,4-difluorophenyl)-5-hydroxy-N-((1S,2S)-2-hydroxycyclohexyl)-6-(hydroxymethyl)-3-methoxytetrahydro-2H-pyran-2-carboxamide], the IC50 is 1940 nM in assay [1] and 58 nM in assay [2].

For the compound `CO[C@@H]1[C@@H](n2cc(-c3ccc(Br)c(F)c3)nn2)[C@@H](O)[C@@H](CO)O[C@H]1C(=O)N(c1cc(Cl)cc(C#N)c1)[C@H]1CCCC[C@@H]1O` [Example 165, (2R,3R,4S,5R,6R)-4-(4-(4-bromo-3-fluorophenyl)-1H-1,2,3-triazol-1-yl)-N-(3-chloro-5-cyanophenyl)-5-hydroxy-N-((1S,2S)-2-hydroxycyclohexyl)-6-(hydroxymethyl)-3-methoxytetrahydro-2H-pyran-2-carboxamide], the IC50 is 792 nM in assay [1] and 34 nM in assay [2].

Take `CO[C@@H]1[C@@H](n2cc(-c3cc(F)c(Cl)c(Cl)c3)nn2)[C@@H](O)[C@@H](CO)O[C@H]1C(=O)N(c1cc(Cl)cc(Cl)c1)[C@H]1CCCC[C@@H]1O` [Example 166, (2R,3R,4S,5R,6R)-4-(4-(3,4-dichloro-5-fluorophenyl)-1H-1,2,3-triazol-1-yl)-N-(3,5-dichlorophenyl)-5-hydroxy-N-((1S,2S)-2-hydroxycyclohexyl)-6-(hydroxymethyl)-3-methoxytetrahydro-2H-pyran-2-carboxamide]: the figures for the IC50 in assay [1] and in assay [2] were 1340 nM and 22 nM, respectively.

Consider `CO[C@@H]1[C@@H](n2cc(-c3cc(F)c(Cl)c(Cl)c3)nn2)[C@@H](O)[C@@H](CO)O[C@H]1C(=O)N(c1ccc(F)c(F)c1)[C@H]1CCCC[C@@H]1O` [Example 167, (2R,3R,4S,5R,6R)-4-(4-(3,4-dichloro-5-fluorophenyl)-1H-1,2,3-triazol-1-yl)-N-(3,4-difluorophenyl)-5-hydroxy-N-((1S,2S)-2-hydroxycyclohexyl)-6-(hydroxymethyl)-3-methoxytetrahydro-2H-pyran-2-carboxamide], for which the results for the IC50 in assay [1] and in assay [2] were 1240 nM and 64 nM, respectively.

For the compound `CO[C@@H]1[C@@H](n2cc(-c3cc(F)c(Cl)c(Cl)c3)nn2)[C@@H](O)[C@@H](CO)O[C@H]1C(=O)N(c1ccc2ncsc2c1)[C@H]1CCCC[C@@H]1O` [Example 168, (2R,3R,4S,5R,6R)-N-(benzo[d]thiazol-6-yl)-4-(4-(3,4-dichloro-5-fluorophenyl)-1H-1,2,3-triazol-1-yl)-5-hydroxy-N-((1S,2S)-2-hydroxycyclohexyl)-6-(hydroxymethyl)-3-methoxytetrahydro-2H-pyran-2-carboxamide], the values for the IC50 in assay [1] and in assay [2] were 672 nM and 25 nM, respectively.

With `CO[C@@H]1[C@@H](n2cc(-c3ccc(C)c(F)c3)nn2)[C@@H](O)[C@@H](CO)O[C@H]1C(=O)N(c1cc(Cl)cc(C#N)c1)[C@H]1CCCC[C@@H]1O` [Example 170, (2R,3R,4S,5R,6R)-N-(3-chloro-5-cyanophenyl)-4-(4-(3-fluoro-4-methylphenyl)-1H-1,2,3-triazol-1-yl)-5-hydroxy-N-((1S,2S)-2-hydroxycyclohexyl)-6-(hydroxymethyl)-3-methoxytetrahydro-2H-pyran-2-carboxamide], the IC50 in assay [1] worked out at 569 nM; in assay [2], 18 nM.

In the case of `CO[C@@H]1[C@@H](n2cc(-c3ccc(C)c(F)c3F)nn2)[C@@H](O)[C@@H](CO)O[C@H]1C(=O)N(c1cc(Cl)cc(C#N)c1)[C@H]1CCCC[C@@H]1O` [Example 171, (2R,3R,4S,5R,6R)-N-(3-chloro-5-cyanophenyl)-4-(4-(2,3-difluoro-4-methylphenyl)-1H-1,2,3-triazol-1-yl)-5-hydroxy-N-((1S,2S)-2-hydroxycyclohexyl)-6-(hydroxymethyl)-3-methoxytetrahydro-2H-pyran-2-carboxamide], the IC50 in assay [1] is 238 nM; in assay [2] it was 12 nM.
